Assay results taken from patent publication US8278265B2, “Methods, kits and compositions comprising crotamine” (Fundacao de Amparo a Pesquisa do Estado de Sao Paulo—FAPESP, priority 2005, dated 2012).

How the values were obtained:
[1] = system: Murine pluripotent embryonic stem cells; assay: In vitro incorporation of Cy3-crotamine in pluripotent embryonic stem cells; format: cell-based; settings: FIG. 2D and E
Protocol: Embrionary stem cells (ES) from mice, line USP-1 (Soukoyan, M. A., Kerkis, A. Y., Mello, M. R. B., Kerkis, I. E., Visintin, J. A., Pereira, L. V. (2002), Establishment of New Murine Embryonic Stem Cell Lines for the Generation of Mouse Models of Human Genetic Diseases, Braz. J. Med. Biol. Res. 35, 535-542) in the passage 8-10 were cultured on a layer of γ-irradiated embrionary fibroblasts of mice, kept in DMEM (Gibco, U.S.A.), supplemented with 15% FCS (Gibco, U.S.A.), 1 mM sodium piruvate, 1% non-essential amino acids, 0.1 mM β-mercaptoethanol and 1×103 U/ml murine Leukemia Inhibitor Factor (LIF) (ESGRO-LIF, Gibco). Human lymphoblastoids and primary fibroblasts were cultivated in DMEM and in RPMI, respectively, supplemented with 10% FCS with no antibiotics. Cultures were kept under humid atmosphere at 37° C. and 5% CO2.
In vitro assay: Semiconffluent cultures of pluripotent and differentiation ES cells (homogeneous cell population), as well as other cell cultures of normal and tumor origin, were kept in small laminar slides placed in 24-well plates containing appropriate culture medium. Cells were incubated for 2-3 minutes to 72 hours in the presence of Cy3-crotamine, under concentrations between 10 μM and 0.01 μM, or as control, just in the presence of the dye agent Cy3 diluted in 1 ml PBS (control). […]

chromosomes = assay: Chromosome analysis; format: cell-based; settings: 1 μM, compared with DAPI or 5-BrDU staining
Protocol: 1 μM crotamine conjugated to Cy3 was added to the culture of ES-USP1 cells, human lymphoblastoids and primary fibroblasts for 1, 3, 6 and 24 hours. Cells were collected and treated according to the routine cytogenetic protocol, with no addition of colchicine. Digital images were obtained with refrigerated CCD (PCO, VC44) and processed by using ISIS software (MetaSystem).

[2] = system: actively proliferating cells; assay: Marker for actively proliferating cells (BrDU co-labeling); format: cell-based, mice; settings: FIG. 8E-H
Excerpt: The hanging drop method was used, with some amendments, to induce the differentiation of ES cells from USP-1 line (Wobus, A. M., Wallukat, G., Hescheler, J. (1991), Pluripotent Mouse Embryonic Cells are Able to Differentiate into Cardiomyocytes Expressing Chronotropic Responses to Adrenergic and Cholinergic Agents and Ca^2+ Channel Blockers, Differentiation 48, 173-182). Briefly, ES cell suspensions without fibroblasts were obtained, collected with 0.25% trypsin/EDTA (Gibco, U.S.A.). Said suspension was diluted up to 3.5×10^4 cells/ml and dropped by using a micropipette (25 μl per drop) on the Petri dish cap (10 cm). Drops adhered to the surface were turned upside down over the plate already containing 5 ml PBS. After three days in a CO2 oven, in the hanging drop culture in appropriate culture medium for ES, with no LIF, aggregates are formed, known as embryonic bodies (EBs). EBs were later transferred to another plate (35 mm) with a 1% agarose layer, and maintained in the CO2 oven at 37° C. On the fifth day, EBs were transferred to microscope slides, on another Petri dish, where they adhered and started differentiating into a monolayer.
Embryonic bodies, obtained according to the protocol as described above, after three days, adhered to small glass slides. […] Microscope slides were assembled in a PBS/glycerol solution (1:1) and analysed in a confocal microscope. […]

[3] = system: linear and/or circular double strand DNA; assay: DNA-peptide interaction by agarose gel electrophoresis (gel shift assay); format: binding; settings: various molar proportions, FIG. 6
Protocol: The interaction between crotamine and DNA was analysed by an interference assay for DNA migration in agarose gel. 1 μg DNA and an increasing concentration of crotamine was added in a total volume of 25 μl, containing 150 mM NaCl. Twenty minutes after the mixture was prepared, samples were analysed by agarose gel electrophoresis (1%), using Tris-borate-EDTA buffer, followed by visualization by staining the nucleic acid with the ethidium bromide.
The formation of the complex between the peptide and DNA was analysed by the electrophoretic mobility of the complex in agarose gel (1%, w/v) by varying the molar proportions between the peptide and the double-strand DNA. Tests were made by mixing plasmid DNA (2 or 4 μg) with 10 μg of pure crotamine, in the presence or absence of 150 mM NaCl, which were applied on agarose gel immersed in Tris borate-EDTA buffer. DNA was then observed after staining with ethidium bromide and using UV light transiluminator. Gel documentation after electrophoresis was made by using an image digitizer (model FLA3000). This system of electrophoresis allows to observe changes in the migration pattern (migration delay) due to the neutralization of nucleic acid by cationic peptide present and/or due to the formation of larger complexes between crotamine and DNA (FIG. 6). […]

plasmid DNA = assay: Peptide-DNA interaction by circular dichroism; format: binding; settings: molar ratio 200:1 and 1:1 (crotamine:DNA), absence and presence of 150 mM NaCl
Protocol: Circular dichroism spectra were taken in a spectropolarymeter JASCO 810 with a Peltier system for temperature control. The device is regularly calibrated with recrystallized d-10 camphorsulfonic acid. Standards used for the equipment were: wavelength range 190-260 nm; sensitivity 100 mdeg; resolution 0.5 nm; response 8 s; reading speed 50 nm/min; 8 accumulations; temperature 37° C. Samples were analysed in a 1 mm optical path cell in 10 mM sodium phosphate buffer, pH 7.4, in the presence or absence of 150 mM NaCl. The crotamine concentration used was 20 μM and plasmid DNA concentration was 0.1 μM. […]

[4] = system: human limfoblastoids, B16 murine melanoma cells, HCT116 colon cancer cells, human mesenchymal stem cells from bone marrow and dental pulp; assay: In vitro transfection with crotamine-DNA aggregates; format: cell-based

Question: Which results are given for “YKQCHKKGGHCFPKEKICLPPSSDFGKMDCRWRWK CCKKGSG (YKQCHKKGGHCFPKEKICLPPSSDFGKMDCRWRWKCCKKGSG; UniProt Q9PWF3 23-64, looked up) [crotamine]”?
Answer: signal on cell islets of pluripotent embryonic stem cells [1]: strong signal; binding to chromosomes (chromosomes): binds to chromosomes in the metaphase; co-location with BrDU staining in actively proliferating ES cells [2]: co-location; effect of complex formation on electrophoretic mobility in agarose gel [3]: interfere in the electrophoretic mobility; interaction with plasmid DNA by circular dichroism spectra (plasmid DNA): presence of interaction; result of in vitro transfection [4]: positive results
